Data published in US5981541A, “Substituted heterocycles as anti-tumor agents” (Rutgers, The State University of New Jersey, priority 1997, dated 1999).
pIC50: −log10 of the molar value.

Target: T1, human topoisomerase I (Homo sapiens, UniProt P11387)
T1 construct: 15 amino acid fusion from pET-11a vector (N); made in house; host or cells: E. coli BL21(DE3)
T1 sequence (P11387 1-765): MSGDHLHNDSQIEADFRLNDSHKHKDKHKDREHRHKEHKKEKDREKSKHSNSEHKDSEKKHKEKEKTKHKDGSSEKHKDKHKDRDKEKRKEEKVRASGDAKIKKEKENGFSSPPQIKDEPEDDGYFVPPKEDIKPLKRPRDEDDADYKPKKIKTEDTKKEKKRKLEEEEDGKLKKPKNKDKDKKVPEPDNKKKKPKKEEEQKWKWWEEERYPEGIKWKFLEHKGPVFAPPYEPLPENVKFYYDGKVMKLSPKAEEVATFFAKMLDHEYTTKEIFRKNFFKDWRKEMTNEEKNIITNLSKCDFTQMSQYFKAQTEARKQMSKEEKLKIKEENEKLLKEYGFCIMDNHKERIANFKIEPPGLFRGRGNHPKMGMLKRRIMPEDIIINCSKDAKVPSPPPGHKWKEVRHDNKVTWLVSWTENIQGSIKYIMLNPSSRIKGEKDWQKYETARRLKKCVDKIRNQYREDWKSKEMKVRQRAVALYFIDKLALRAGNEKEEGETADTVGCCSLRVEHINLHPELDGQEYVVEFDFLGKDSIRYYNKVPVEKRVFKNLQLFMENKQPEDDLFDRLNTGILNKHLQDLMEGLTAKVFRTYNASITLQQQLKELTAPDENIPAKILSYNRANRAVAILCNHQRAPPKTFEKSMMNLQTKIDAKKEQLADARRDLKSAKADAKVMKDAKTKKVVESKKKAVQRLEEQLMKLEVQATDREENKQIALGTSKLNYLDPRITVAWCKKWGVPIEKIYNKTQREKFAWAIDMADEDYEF
Assay: Topo I-mediated DNA cleavage assay
Format: biochemical
Conditions: concentration relative to camptothecin (CPT = 1) producing the same cleavage on plasmid DNA in the presence of human topoisomerase I
Description: To obtain large quantity of human topoisomerase I, the human topoisomerase I cDNA was cloned into the pET-11a vector, in which transcription of the cDNA is under the control of the inducible T7 promoter (Studier et al., Methods in Enzymol., Vol. 185:60-89, San Diego: Academic Press (1990)). Briefly, a 3.4 kb DNA fragment containing the entire coding sequence of human topoisomerase I and approximately 1 kb of untranslated region downstream of the stop codon was isolated from the plasmid YCpGAL1-hTOP1 (Bjornsti et al., Cancer Res. 49:6318-6323 (1989)) by cutting at the BamHI and EcoRI sites. The vector pET-11a was cut with the same restriction enzymes, dephosphorylated and ligated to the insert in the proper reading frame downstream of the vector cloning site. […] Since the translational start in pET is positioned at an upstream NdeI site, the expressed topoisomerase I has a 15 amino acid fusion at its N-terminus. pET1B was then transformed into E. coli BL21 (DE3), and, upon induction with 0.4 mM IPTG for 1 hour, the bacterial lysate was analyzed by 10% SDS-PAGE. […] Briefly, E. coli cells were lysed by repeated sonic bursts. The sonic extract was made in 1 M NaCl and 6% polyethylene glycol (PEG) to remove nucleic acids. The PEG supernatant was chromatographed directly on a hydroxyapatite column. […] The eluted enzyme was dialyzed against 50% glycerol, 30 mM potassium phosphate (pH 7.0), 1 mM dithiothreitol (DTT) and 0.1 mM EDTA and stored at -20° C.
(§1) Cleavage assays for the recombinant topoisomerases I and calf thymus topoisomerases I and II were done as described (Liu et al., J. Biol. Chem. 258:15365-15370 (1983)). The plasmid YEpG DNA used for the cleavage assays was prepared and labeled at its 3'-end using the published procedures.

Row | Topo I-mediated DNA cleavage (REC, Relative Effective Concentration) | Structure (SMILES)
1 | > 1000 | COc1cc2cc3c(ccc4ccccc43)nc2cc1OC [Compound 14c, 9,10-Dimethoxybenz[a]acridine]
2 | 1000 | COc1cc2ccc3nc4ccccc4cc3c2cc1OC [Compound 14d, 2,3-Dimethoxy-benz[a]acridine]
3 | 100 | Oc1cc2cc3c(ccc4cc(O)c(O)cc43)nc2cc1O [Compound 14g, 2,3,9,10-tetrahydroxybenz[a]acridine]
4 | 1000 | COc1cc2cc3c(ccc4cc(Cl)ccc43)nc2cc1OC [Compound 14j, 3-Chloro-9,10-dimethoxybenz[a]acridine]
5 | 100 | COc1cc2c(cc1OC)-c1cc3cc(OC)c(OC)cc3[n+](C)c1CC2 [Compound 15a, 2,3,9,10-Tetramethoxy-7-methyl-5,6-dihydrobenz[a]acridinium methosulfate]
6 | 100 | COc1cc2cc3c(nc2cc1OC)CCc1ccc(N)cc1-3 [Compound 20, 2-Amino-9,10-dimethoxy-5,6-dihydrobenz[a]acridine]
7 | 1 | COc1cc2cc3c4cc(OC)c(OC)cc4cc[n+]3c(C)c2cc1OC [Coralyne, reference compound]
8 | 0.1 | COc1cc2c[n+](C)c3c4cc5c(cc4ccc3c2cc1OC)OCO5 [Nitidine, reference compound]

Row | Structure (SMILES) | Topo I-mediated DNA cleavage (REC, Relative Effective Concentration)
9 | COc1cc2ccc3c(cc4cc(OC)c(OC)cc4[n+]3C)c2cc1OC [Compound 16a, 2,3,9,10-Tetramethoxy-7-methylbenz[a]acridinium methosulfate] | > 1000

Test system: camptothecin-resistant CPT-K5 cells
Assay: MTT-microtiter plate tetrazolinium cytotoxicity assay (MTA), CPT-K5
Format: cell-based, human
Conditions: Homo sapiens, 96 h; camptothecin-resistant CPT-K5 cells; 4 days of continuous drug exposure; read-out: Cytotoxicity IC50, CPT-K5
Method: (§2) The IC50 of the drugs tested were determined by the MTT-microtiter plate tetrazolinium cytotoxicity assay (MTA) (Mosmann, T., J. Immunol. Methods 65:55-63 (1983); Denizot et al., J. Immunol. Methods 89:271-277 (1986)). Human lymphoblast RPMI 8402 cells and their camptothecin-resistant CPT-K5 cells (Andoh et al., Proc. Natl. Acad. Sci., USA 84:5565-5569 (1987)) were kindly provided by Dr. Toshiwo Andoh (Aichi Cancer Center Research Institute, Nagoya, Japan). The cell lines A2780 and its camptothecin-resistant derivative CPT-2000 were a generous gift of Dr. Jaulang Hwang (Institute of Molecular Biology, Academia sinica, Taiwan). Cells (2000 cells/well, seeded in […] growth medium) were grown in suspension at 37° C. in 5% CO2 and maintained by regular passage in RPMI medium supplemented with 10% heat inactivated fetal bovine serum, L-glutamine (2 mM), penicillin (100 U/mi), and streptomycin (0.1 mg/ml). The cells were exposed continuously for 4 days to drug concentrations ranging from 100 ug/ml to 1.0 ng/ml in ten fold dilutions, and assayed at the end of the fourth day. Each concentration and the no drug control were repeated at least twice in 6 replica wells. The results were plotted and the IC50 then measured. The drug sensitive human epidermoid carcinoma KB 3-1 cell line and its vinblastine-selected multidrug-resistant variant KB-V1 cells (Akiyama et al., Genetics 11:117-126 (1985)) were kindly provided by Dr. Michael Gottesmann (National Cancer Institute). They were grown as monolayer cultures at 37° C. in 5% CO2 and maintained by regular passage in Dulbecco's minimal essential medium supplemented with 10% heat inactivated fetal bovine serum. KB-V1 cells were maintained in the presence of […] vinblastine.

Row | Structure (SMILES) | pIC50
10 | COc1cc2ccc3c(cc4cc(OC)c(OC)cc4[n+]3C)c2cc1OC [Compound 16a, 2,3,9,10-Tetramethoxy-7-methylbenz[a]acridinium methosulfate] | 4.63

Same assay, conditions: Homo sapiens, CPT-K5, 96 h, read-out: Cytotoxicity IC50, CPT-K5

Row | Structure (SMILES) | pIC50
11 | COc1cc2cc3c(ccc4ccccc43)nc2cc1OC [Compound 14c, 9,10-Dimethoxybenz[a]acridine] | 4.51
12 | COc1cc2ccc3nc4ccccc4cc3c2cc1OC [Compound 14d, 2,3-Dimethoxy-benz[a]acridine] | 4.86
13 | Oc1cc2cc3c(ccc4cc(O)c(O)cc43)nc2cc1O [Compound 14g, 2,3,9,10-tetrahydroxybenz[a]acridine] | < 4.47
14 | COc1cc2cc3c(ccc4cc(Cl)ccc43)nc2cc1OC [Compound 14j, 3-Chloro-9,10-dimethoxybenz[a]acridine] | < 4.51
15 | COc1cc2c(cc1OC)-c1cc3cc(OC)c(OC)cc3[n+](C)c1CC2 [Compound 15a, 2,3,9,10-Tetramethoxy-7-methyl-5,6-dihydrobenz[a]acridinium methosulfate] | < 4.62
16 | COc1cc2cc3c(nc2cc1OC)CCc1ccc(N)cc1-3 [Compound 20, 2-Amino-9,10-dimethoxy-5,6-dihydrobenz[a]acridine] | < 4.48
17 | COc1cc2cc3c4cc(OC)c(OC)cc4cc[n+]3c(C)c2cc1OC [Coralyne, reference compound] | 4.70
18 | COc1cc2c[n+](C)c3c4cc5c(cc4ccc3c2cc1OC)OCO5 [Nitidine, reference compound] | 5.41

Test system: Human lymphoblast RPMI 8402 cells
Assay: MTT-microtiter plate tetrazolinium cytotoxicity assay (MTA), RPMI 8402
Format: cell-based
Conditions: Homo sapiens, 96 h; RPMI 8402 cells; 4 days of continuous drug exposure; read-out: Cytotoxicity IC50, RPMI
Method: as §2

Row | Structure (SMILES) | pIC50
19 | COc1cc2ccc3c(cc4cc(OC)c(OC)cc4[n+]3C)c2cc1OC [Compound 16a, 2,3,9,10-Tetramethoxy-7-methylbenz[a]acridinium methosulfate] | 4.60

Same assay, conditions: Homo sapiens, RPMI 8402, 96 h, read-out: Cytotoxicity IC50, RPMI

Row | Structure (SMILES) | pIC50
20 | COc1cc2cc3c(ccc4ccccc43)nc2cc1OC [Compound 14c, 9,10-Dimethoxybenz[a]acridine] | 4.98
21 | COc1cc2ccc3nc4ccccc4cc3c2cc1OC [Compound 14d, 2,3-Dimethoxy-benz[a]acridine] | 4.98
22 | Oc1cc2cc3c(ccc4cc(O)c(O)cc43)nc2cc1O [Compound 14g, 2,3,9,10-tetrahydroxybenz[a]acridine] | 4.77
23 | COc1cc2cc3c(ccc4cc(Cl)ccc43)nc2cc1OC [Compound 14j, 3-Chloro-9,10-dimethoxybenz[a]acridine] | < 4.51
24 | COc1cc2c(cc1OC)-c1cc3cc(OC)c(OC)cc3[n+](C)c1CC2 [Compound 15a, 2,3,9,10-Tetramethoxy-7-methyl-5,6-dihydrobenz[a]acridinium methosulfate] | < 4.62
25 | COc1cc2cc3c(nc2cc1OC)CCc1ccc(N)cc1-3 [Compound 20, 2-Amino-9,10-dimethoxy-5,6-dihydrobenz[a]acridine] | 4.79
26 | COc1cc2cc3c4cc(OC)c(OC)cc4cc[n+]3c(C)c2cc1OC [Coralyne, reference compound] | 5.31
27 | COc1cc2c[n+](C)c3c4cc5c(cc4ccc3c2cc1OC)OCO5 [Nitidine, reference compound] | 6.40

Target: T2, calf thymus topoisomerase II (Bos taurus, UniProt F1MDU7)
T2 construct: from tissue; host or cells: calf thymus glands
T2 sequence (F1MDU7 1-1532): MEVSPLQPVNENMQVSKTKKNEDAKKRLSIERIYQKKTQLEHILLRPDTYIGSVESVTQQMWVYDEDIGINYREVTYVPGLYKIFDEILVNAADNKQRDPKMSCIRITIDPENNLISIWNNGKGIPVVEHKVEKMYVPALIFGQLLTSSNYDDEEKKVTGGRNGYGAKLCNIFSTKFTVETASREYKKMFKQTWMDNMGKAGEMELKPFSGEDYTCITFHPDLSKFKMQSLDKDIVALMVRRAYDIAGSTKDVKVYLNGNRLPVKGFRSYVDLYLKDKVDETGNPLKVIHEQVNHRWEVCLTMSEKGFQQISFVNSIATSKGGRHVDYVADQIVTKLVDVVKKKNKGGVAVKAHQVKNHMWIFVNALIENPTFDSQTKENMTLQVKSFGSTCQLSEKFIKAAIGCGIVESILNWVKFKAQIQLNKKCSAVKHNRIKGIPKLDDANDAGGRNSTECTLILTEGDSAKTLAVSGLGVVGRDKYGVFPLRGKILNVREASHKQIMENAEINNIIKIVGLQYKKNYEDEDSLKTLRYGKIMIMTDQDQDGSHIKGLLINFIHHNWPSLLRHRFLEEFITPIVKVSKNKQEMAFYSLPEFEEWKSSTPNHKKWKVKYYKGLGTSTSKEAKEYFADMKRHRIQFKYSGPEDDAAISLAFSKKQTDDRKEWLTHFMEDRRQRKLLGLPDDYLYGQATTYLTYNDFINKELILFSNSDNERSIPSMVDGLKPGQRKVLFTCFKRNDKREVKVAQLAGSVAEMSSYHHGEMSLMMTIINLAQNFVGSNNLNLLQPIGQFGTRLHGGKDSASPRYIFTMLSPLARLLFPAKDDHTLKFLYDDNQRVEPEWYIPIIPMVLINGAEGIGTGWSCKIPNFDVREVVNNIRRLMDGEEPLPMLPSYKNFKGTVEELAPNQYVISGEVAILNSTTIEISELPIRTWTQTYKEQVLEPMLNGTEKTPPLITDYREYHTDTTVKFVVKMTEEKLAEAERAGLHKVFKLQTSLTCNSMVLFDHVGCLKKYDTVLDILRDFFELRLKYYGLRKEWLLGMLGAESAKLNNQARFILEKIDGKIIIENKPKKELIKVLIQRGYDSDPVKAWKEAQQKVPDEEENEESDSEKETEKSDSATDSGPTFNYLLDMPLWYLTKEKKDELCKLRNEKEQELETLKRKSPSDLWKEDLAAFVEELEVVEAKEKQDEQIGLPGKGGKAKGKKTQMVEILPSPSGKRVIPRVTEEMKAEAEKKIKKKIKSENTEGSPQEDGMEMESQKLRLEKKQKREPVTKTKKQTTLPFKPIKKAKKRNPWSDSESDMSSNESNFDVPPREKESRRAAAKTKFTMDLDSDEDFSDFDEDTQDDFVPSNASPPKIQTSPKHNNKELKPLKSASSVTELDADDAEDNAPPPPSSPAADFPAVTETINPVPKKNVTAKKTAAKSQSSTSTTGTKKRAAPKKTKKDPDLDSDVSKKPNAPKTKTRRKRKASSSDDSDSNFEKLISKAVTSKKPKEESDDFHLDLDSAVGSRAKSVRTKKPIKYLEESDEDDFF
Assay: Topo II-mediated DNA cleavage assay
Format: biochemical
Conditions: concentration relative to VM26 (= 1) producing the same cleavage on plasmid DNA in the presence of calf thymus topoisomerase II
Description: The plasmid pET11a and the E. coli strain BL21(DE3) used for enzyme expression were purchased from Novagen. IPTG was purchased from Sigma. The ECL system used for the Western blotting analysis of bacterial lysates was from Amersham (UK). All the restriction enzymes and Vent polymerase were from New England Biolabs. Mammalian topoisomerase II was isolated from calf thymus glands according to the published procedure (Halligan et al., J. Biol. Chem. 260:2475-2482 (1985)). The single copy yeast plasmids YCpGAL1 expressing various topoisomerase I genes in JN2-134 yeast strain were a kind gift of Dr. M-A. Bjornsti (Thomas Jefferson University, Philadelphia, Pa.). All bacterial and yeast media were from Difco (Detroit, Mich.), while cell culture media were purchased from Gibco-BRL (Gaithersburg, Md.).
as §1

Row | Topo II-mediated DNA cleavage (REC, Relative Effective Concentration) | Structure (SMILES)
28 | > 1000 | COc1cc2cc3c(ccc4ccccc43)nc2cc1OC [Compound 14c, 9,10-Dimethoxybenz[a]acridine]
29 | > 1000 | COc1cc2ccc3nc4ccccc4cc3c2cc1OC [Compound 14d, 2,3-Dimethoxy-benz[a]acridine]
30 | > 1000 | Oc1cc2cc3c(ccc4cc(O)c(O)cc43)nc2cc1O [Compound 14g, 2,3,9,10-tetrahydroxybenz[a]acridine]
31 | > 1000 | COc1cc2cc3c(ccc4cc(Cl)ccc43)nc2cc1OC [Compound 14j, 3-Chloro-9,10-dimethoxybenz[a]acridine]
32 | > 1000 | COc1cc2c(cc1OC)-c1cc3cc(OC)c(OC)cc3[n+](C)c1CC2 [Compound 15a, 2,3,9,10-Tetramethoxy-7-methyl-5,6-dihydrobenz[a]acridinium methosulfate]
33 | > 1000 | COc1cc2cc3c(nc2cc1OC)CCc1ccc(N)cc1-3 [Compound 20, 2-Amino-9,10-dimethoxy-5,6-dihydrobenz[a]acridine]
34 | > 1000 | COc1cc2cc3c4cc(OC)c(OC)cc4cc[n+]3c(C)c2cc1OC [Coralyne, reference compound]
35 | 5 | COc1cc2c[n+](C)c3c4cc5c(cc4ccc3c2cc1OC)OCO5 [Nitidine, reference compound]

Row | Structure (SMILES) | Topo II-mediated DNA cleavage (REC, Relative Effective Concentration)
36 | COc1cc2ccc3c(cc4cc(OC)c(OC)cc4[n+]3C)c2cc1OC [Compound 16a, 2,3,9,10-Tetramethoxy-7-methylbenz[a]acridinium methosulfate] | > 1000
